From patent US20030021796A1, “Method of enhancing T cell immunity by selection of antigen specific T cells” (priority 2001, published 2003)
“Also recorded” adds a separate entry of the source.

Tests used:
Format in all cases: in vivo, mouse
transgenic CD4^+ T cells = experiment: Neonatal thymus transplant under the kidney capsule of TCRα^−H2-M^−Ii^− recipients with selecting peptide
Excerpt: Since the selecting peptide is an agonist, in a specific embodiment of the present invention the observed phenomenon results from the expansion of a small number of peripheral transgenic CD4^+ T cells rather than from induced positive selection. To test this possibility, two types of experiments have been performed. In the first experiment, the PCC TgTCRα^−H-2M^−Ii^− mice were thymectomized and then injected with the PCC50V54A peptide. Two weeks after injection, these mice were sacrificed and the number of peripheral CD4^+ T cells was counted. […] In the second experiment, the neonatal thymi from TgTCRα^−H-2M^−Ii^− mice were transplanted under the kidney capsule of H-2M^−Ii^− TCRα^− mice, which are devoid of T cells. Two days after surgery, half of the recipient mice were injected with the selecting peptide. After 10 days, recipient mice were sacrificed and the presence of transgenic CD4^+ T cells in the transplanted thymus and lymph nodes was determined by FACS analysis. […] Apparently, CD4^+ T cells appear in the peripheral lymph nodes of PCC TgTCRα^−H-2M^−Ii^− injected with the PCC50V54A peptide as a result of positive selection by this peptide.
Peptide injections and surgical procedures. TCR^TgTCRα^− and TCR^TgTCRαH2-M^−Ii^− were injected i.p. with agonist and control peptides dissolved in PBS. After indicated time mice were sacrificed, thymus and lymph nodes were collected and single cell suspensions were prepared. Pups were injected with 2 μg of peptide subcutaneously 12-24 hours after birth and thymi were transplanted into recipient mice 24 hours after injection. […]
(§1) Since the selecting peptide is an agonist, one could argue that the observed phenomenon results from the expansion of a small number of peripheral transgenic CD4^+ T cells rather than from induced positive selection (Martin & Bevan, 1997). […] Two weeks after injection, the mice were sacrificed and the number of peripheral CD4^+ T cells was counted. […] After 10 days, recipient mice were sacrificed and the presence of transgenic CD4^+ T cells in the transplanted thymus and host lymph nodes was determined by FACS analysis. […]

transgenic thymocytes = experiment: Negative selection of transgenic thymocytes after i.p. peptide injection into TCR^TgTCRα^− mice (wild type A^b)
Protocol: (§2) Flow cytometry analysis. Monoclonal antibodies specific for CD4(RM4-5), CD8(53-6.7), VβB8(F23.1), CD69(H1.2F3), CD44(IM7) and CD62L(MEL-14) were purchased from PharMingen (San Diego, Calif.) and used according to manufacturer's recommendations. Cells were analyzed using a FACSCalibur instrument (Becton Dickinson, San Jose, Calif.) and CellQuest software. For intracellular stain cells were first stained for CD4 and CD8, fixed in 2% paraformaldehyde, permeabilized in 0.1% Tween-20 and stained with anti-bcl-2 antibody (Pharmingen) according to manufacturer instruction.
(§3) Peptide injections and surgical procedures. TCR^TgTCRα^− and TCR^TgTCRαH2-M^−Ii^− were injected i.p. with agonist and control peptides dissolved in PBS. After indicated time mice were sacrificed, thymus and lymph nodes were collected and single cell suspensions were prepared. Pups were injected with 2 μg of peptide subcutaneously 12-24 hours after birth and thymi were transplanted into recipient mice 24 hours after injection. 5-8 week old TCR^TgTCRα^− H2-M^−Ii^− mice were used for thymectomy or as thymic transplant recipients. Surgical procedures were performed as described (Coligan et al., 1997). Mice were handled according with the institutional guidance.
Characterization of peptide agonists for the PCC specific transgenic αβTCR. To examine the role of peptides during positive selection in vivo, the inventors generated transgenic mice expressing class II restricted TCR specific for analogs of a pigeon cytochrome C peptide PCC(43-58) presented by the A molecule (Kraj et al., 2001). This receptor recognizes analogs of PCC(43-58) in which aspartic acid in position 50 is replaced by amino acids with neutral/hydrophobic (PCC50V, PCC50V54A, PCC46A49A50V54A, PCC50L, PCC50F) side chains (FIG. 6 and FIG. 9). The TCR transgenic mice were backcrossed to C57BL6 TCRα^− knockout mice so that almost all T cells expressing transgenic TCR become CD4^+ T cells (FIG. 4A and FIG. 10A). Initially, the inventors examined the capacity of agonist peptides to induce negative selection of transgenic T cells.

peripheral CD4^+ T cells = experiment: Peptide injection into thymectomized TCR^TgTCRα^−H2-M^−Ii^− mice; conditions: two weeks after injection
Excerpt: Since the selecting peptide is an agonist, in a specific embodiment of the present invention the observed phenomenon results from the expansion of a small number of peripheral transgenic CD4^+ T cells rather than from induced positive selection. To test this possibility, two types of experiments have been performed. In the first experiment, the PCC TgTCRα^−H-2M^−Ii^− mice were thymectomized and then injected with the PCC50V54A peptide. Two weeks after injection, these mice were sacrificed and the number of peripheral CD4^+ T cells was counted. […] After 10 days, recipient mice were sacrificed and the presence of transgenic CD4^+ T cells in the transplanted thymus and lymph nodes was determined by FACS analysis. […]
as §1

B16 melanoma cells = experiment: Protection against B16 melanoma transfected with A^bPCC50V54A-YFP in TCR^Tgα^−H-2M^−Ii^− mice
Protocol: Protection of a mouse melanoma model. Peptide selected CD4^+ T cells are shown to be functional and protect mice from melanoma tumor cells. To determine if peptide selected T lymphocytes are able to mount an effective immune response in vivo the ability of peptide-selected CD4^+ cells to protect mice from melanoma was assessed. Melanoma B16-F1 was transfected with constructs encoding the A^bβPCC50V54A chain tagged with yellow fluorescent protein (YFP) and A^bα chain. These transfectants weakly stimulated TCR^Tgα^− CD4^+ cells from wild type mice. TCR^Tgα^−H2-M^−Ii^− mice received subcutaneous injection of B16 melanoma transfectants. At the same time, half of these mice also received selecting agonist peptide. After 12 days, animals were sacrificed, and the phenotype of tumor cells and peripheral CD4^+ T cells in draining lymph nodes was examined. As shown in FIGS. 16A-E, only mice that received selecting peptide accumulated peripheral CD4^+ T cells. These cells responded to tumor as assessed by upregulation of CD69 and downregulation of CD62L. Most importantly, tumors in mice that received a selecting peptide were much smaller (4-6 times) and were composed of melanoma cells without surface expression of antigenic complex (only about ¼ of cells were YFP^+ compared to more then ¾ in mice not treated with the selecting peptide). […]

lymph node cells = experiment: Repopulation of peripheral lymph nodes in peptide-injected TCR^TgTCRα^−H2-M^−Ii^− mice
Protocol: as §2, §3

Sequence: AEGFSYTVANKAKGIT [PCC50V54A, analog of pigeon cytochrome C peptide PCC(43-58)]
- presence of transgenic CD4^+ T cells in transplanted thymus and host lymph nodes (transgenic CD4^+ T cells; donor neonates injected (2 μg) 24 hours before transplantation): found only in mice grafted with thymi from neonates injected with the selecting peptide; also recorded: repopulate peripheral lymph nodes
- presence of transgenic CD4^+ T cells in transplanted thymus and lymph nodes (transgenic CD4^+ T cells; recipients injected two days after surgery, analysed after 10 days): found only in thymus-grafted mice, injected with the selecting peptide
- total number of lymph node cells (transgenic CD4^+ T cells; recipients of neonatal thymi injected with the selecting peptide, two weeks after transplantation): 25.5×10^6±4.2
- negative selection of transgenic thymocytes (transgenic thymocytes; 20 μg i.p., 24 hours, thymus cellularity, annexin V, TUNNEL): does not induce negative selection; also recorded: did not induce negative selection
- thymus cellularity (transgenic thymocytes; 20 μg, TgTCRα^−H-2M^−Ii^− or TgTCRα^−A^bwt mice): the same as in control mice
- negative selection / deletion of transgenic thymocytes (transgenic thymocytes; 200 μg/mouse i.p., 24 hours): induced profound negative selection; also recorded: induced profound deletion
- apoptotic cells by TUNNEL assay and annexin V staining (transgenic thymocytes; after peptide injection, 20 μg): failed to demonstrate apoptotic cells
- total number of lymph node cells (peripheral CD4^+ T cells; 50 μg): 11.5×10^6±1.6
- number of peripheral CD4 transgenic T cells (peripheral CD4^+ T cells; versus non-injected thymectomized controls): very low and did not increase; also recorded: very few CD4^+ peripheral T cells
- tumor mass / size relative to mice without selecting peptide (B16 melanoma cells; 20 μg i.p.): 4-6 times smaller
- expression of A^bPCC50V54A-YFP on remaining tumor cells (B16 melanoma cells; more then ¾ YFP^+ in mice not treated): do not express A^bPCC50V54A-YFP
- CD4^+ cells in peripheral lymph nodes (lymph node cells; after i.p. injection, about two weeks): increase in the number of CD4^+ cells
- phenotype of peripheral CD4^+ cells (CD44, CD62L) (lymph node cells; mouse, in vivo): had naïve phenotype
- total number of lymph node cells (lymph node cells; two weeks after injection): 44.1×10^6±9.8
